This test has as its system Plasmopara viticola. The test can be described thus: Activity against Peronospora of vines caused by Plasmopara viticola (persistence test on potted vines). Format: in vivo. As to conditions: individual active compound, vines "Müller-Thurgau", inoculated 3 days after spraying. The procedure: The active compounds were prepared separately or together as a stock solution comprising 0.25% of active compound in acetone or DMSO. 1% by weight of the emulsifier Uniperol® EM (wetting agent having emulsifying and dispersing action based on ethoxylated alkylphenols) was added, and the mixture was diluted with water to the desired concentration.
Evaluation is carried out by determining the infected leaf areas in percent. These percentages are converted into efficacies. The expected efficacies of the active compound mixtures are determined using Colby's formula [R. S. Colby, Weeds 15, 20-22 (1967)] and compared with the observed efficacies.
Colby's formula: E=x+y−x.y/100 • E expected efficacy, expressed in % of the untreated control, when using the mixture of the active compounds A and B at the concentrations a and b • x efficacy, expressed in % of the untreated control, when using active compound A at a concentration of a • y efficacy, expressed in % of the untreated control, when using active compound B at a concentration of b
The efficacy (E) is calculated as follows using Abbot's formula: E=(1−α/β)·100 • α corresponds to the fungal infection of the treated plants in % and • β corresponds to the fungal infection of the untreated (control) plants in %
An efficacy of 0 means that the infection level of the treated plants corresponds to that of the untreated control plants; an efficacy of 100 means that the treated plants were not infected.
Leaves of potted vines of the cultivar “Müller-Thurgau” were sprayed to runoff point with an aqueous suspension having the concentration of active compound stated below. To be able to assess the persistence of the substances, the plants were, after the spray coating had dried on, placed in a green house for 3 days. Only then were the leaves inoculated with an aqueous zoospore suspension of Plasmopara viticola. The vines were then initially placed in a water-vapor-saturated chamber at 24° C. for 48 hours and then in a greenhouse at 20-30° C. for 5 days. After this period of time, the plants were again placed in a moist chamber for 16 hours to promote sporangiophore eruption. The extent to which the infection had developed on the undersides of the leaves was then determined visually.

Results on two molecules are retold here after US7074422B2, “Fungicidal mixtures” (BASF Aktiengesellschaft, priority 2002, dated 2006).

Turning to `CCCOC(=O)NCCN(C)C` [I, propyl (2-dimethylaminoethyl)carbamate], the “Efficacy in % of the untreated control” value is given as 0 % of the untreated control (3.75 ppm in the spray liquor), 0 % of the untreated control (7.5 ppm in the spray liquor), 0 % of the untreated control (15 ppm in the spray liquor) and 0 % of the untreated control (30 ppm in the spray liquor).
For `N#Cc1sc2c(=O)c3ccccc3c(=O)c=2sc1C#N` [II, dithianon], the “Efficacy in % of the untreated control” value (30 ppm in the spray liquor) was 89 % of the untreated control.
